From patent EP0655457A1, “MORANOLINE DERIVATIVE” (NIPPON SHINYAKU COMPANY, LIMITED, priority 1992, dated 1994)

Test system: ELAM-1 dependent adhesion of cultured human leukemia HL60 cells
Test: Binding of HL60 cells to IL-1β-activated human vascular endothelial cells (cell adhesion count)
Assay type: cell-based
Conditions: for Cell adhesion count (%): % of control (HL60 bound to IL-1β-activated HUVEC = 100%); for Cell adhesion count: adhered HL60 cells on HUVEC activated with IL-1β 10U/ml
Description: The effect of the synthetic sugar on the binding of activated human vascular endothelial cells and cultured human leukemia HL60 cells
Cultured human vascular endothelial cells were separated from the human umbilical vein by collagenase treatment and cultured in a culture flask coated with 1% gelatin or fibronectin at a concentration of 0.02 mg/cm². The growth medium used was prepared by adding 15% fetal calf serum (FCS), 45 mg/l ECGS, 90 mg/l heparin and 40 mg/l gentamicin to medium 199. The proliferation of the cultured human leukemia cell line HL60 was maintained using 10% FCS-containing RPMI-1640. Both cells were cultured in a CO₂ incubator (5% CO₂, 95% air) at 37°C.
The cultured human umbilical vein endothelial cells (HUVEC) were seeded on a 96-well microtiter plate which had been precoated with 0.1% gelatin and were incubated until the growth became confluent. After the cells were washed with 10% FCS-containing Dulbecco's modified Eagle's medium (DMEM), 100 µl of 10% FCS-DMEM containing recombinant human interleukin-1β (IL-1β) was added. The cells were then cultured in a CO₂ incubator at 37°C for 4 hours (activation). The HL60 cells were washed twice with serum-free DMEM, suspended in 0.5% glutaldehyde-containing Hanks' solution and fixed on wet ice for 30 minutes.
The fixed cells were washed twice with serum-free DMEM to remove the fixative. Then, 10% FCS-containing DMEM was added to the cells so as to provide a suspension of 2x10⁶ cells/ml, which was then preserved on wet ice till use.
The HUVEC activated above was washed with 10% FCS-containing DMEM and 50µl of 10% FCS-DMEM containing either anti-ELAM-1 antibody (BBA 2, British Biotechnology Ltd., Abinton) or the test substance was added followed by incubation at room temperature for 30 minutes. The fixed HL60 cells were added in 50 µl aliquots and the incubation was further continued at room temperature for 45 minutes.
After the unbound HL60 cells were washed off, the center of each well was photographed and the number of adhered cells in the photographing field was counted. With the number of HL60 cells bound to the IL-1β-activated HUVEC being taken as 100%, the effect of addition of the test substance was evaluated.

[1] = concentration of 500 µg/ml, referring to Table 2
[2] = concentration of 100 µg/ml, referring to Table 1

Compound: 6-O-(5-acetamido-3,5-dideoxy-D-glycero-α-D-galacto-2-nonulopyranosylono-1',5-N-lactam)-1,5-dideoxy-1,5-imino-D-galactitol [Example (10)]
- Cell adhesion count (%) (Table 2, 50 µg/ml, n=6): 93.4%
- Cell adhesion count (Table 2, 50 µg/ml, n=6): 494.7
- Cell adhesion count (%) (Table 2, 500 µg/ml, n=6): 82.5%
- Cell adhesion count (Table 2, 500 µg/ml, n=6): 436.2
- inhibit the adhesion of HL60 cells to activated HUVEC [1]: 17.5%

Compound: CC(=O)N1C(=O)C2(OCC3NCC(O)C(O)C3O)CC(O)C1C(C(O)C(O)CO)O2 [Example (8), 6-O-(5-acetamido-3,5-dideoxy-D-glycero-α-D-galacto-2-nonulopyranosylono-1',5-N-lactam)-1,5-dideoxy-1,5-imino-D-glucitol]
- Cell adhesion count (%) (Table 2, 50 µg/ml, n=6): 89.6%
- Cell adhesion count (Table 2, 50 µg/ml, n=6): 473.7
- Cell adhesion count (%) (Table 2, 500 µg/ml, n=6): 81.1%
- Cell adhesion count (Table 2, 500 µg/ml, n=6): 428.5
- inhibit the adhesion of HL60 cells to activated HUVEC [1]: 18.9%

Compound: CC(=O)N[C@H]1[C@H]([C@H](O)[C@H](O)CO)O[C@@](OC[C@@H]2[C@@H](O)[C@H](O)[C@@H](O)CN2C)(C(=O)O)C[C@@H]1O [Example (9), O-(5-acetamido-3,5-dideoxy-D-glycero-α-D-galacto-2-nonulopyranosylonic acid)-(2→6)-1,5-dideoxy-N-methyl-1,5-imino-D-glucitol]
- Cell adhesion count (%) (Table 1, 100 µg/ml, n=5): 49.1%
- Cell adhesion count (Table 1, 100 µg/ml, n=5): 188.4
- inhibit the adhesion of HL60 cells to activated HUVEC [2]: 50.9%

Compound: CC(=O)N[C@H]1[C@H]([C@H](O)[C@H](O)CO)O[C@@](OC[C@@H]2[C@H](O)[C@H](O)[C@@H](O)CN2C)(C(=O)O)C[C@@H]1O [Example (11), O-(5-acetamido-3,5-dideoxy-D-glycero-α-D-galacto-2-nonulopyranosylonic acid)-(2→6)-1,5-dideoxy-N-methyl-1,5-imino-D-galactitol]
- Cell adhesion count (%) (Table 1, 100 µg/ml, n=5): 40.4%
- Cell adhesion count (Table 1, 100 µg/ml, n=5): 155.0
- inhibit the adhesion of HL60 cells to activated HUVEC [2]: 59.6%
